Measured values from publication PMC9977294, “A parasitic fungus employs mutated eIF4A to survive on rocaglate-synthesizing Aglaia plants” (eLife, 2023).
Values joined by “and” are separate entries in the source; they are usually repeats but may differ in a detail not shown here. Identical values can stand only once. Like-named read-outs stand apart in the source and are kept apart here.

What was measured:
Experiment in all cases: Fluorescence polarization assay, FAM-labeled [AG]10 RNA and recombinant eIF4A
Format in all cases: binding
Details in all cases: for Kd: [AG]10 10 nM, compound 50 µM, read-out: Kd between eIF4A protein and RNA
[1] = molecular target: Ophiocordyceps sp. BRM1 eIF4A iso4 WT Gly172
Protocol: (§1) The fluorescence polarization assay was performed as previously described ([Chen et al., 2021]). […] After incubation at room temperature for 30 min, the mixture was transferred to a black 384-well microplate (Corning), and the fluorescence polarization was measured by an Infinite F-200 PRO (Tecan). Under ADP + Pi conditions, 1 mM ADP (Fujifilm Wako Chemicals) and 1 mM Na2HPO4 were used as substitutes for AMP-PNP. The data were fitted to the Hill equation to calculate Kd values and visualized by Igor Pro v8.01 (WaveMetrics).

[2] = molecular target: Ophiocordyceps sp. BRM1 eIF4A iso4 Gly172His
Protocol: as §1

[3] = molecular target: Ophiocordyceps sp. BRM1 eIF4A iso4 Gly172Phe
Protocol: as §1

[4] = [AG]10, ADP + Pi, RocA 50 µM, protein 0.01 μM
[5] = [AG]10, ADP + Pi, RocA 50 µM, protein 0.05 μM
[6] = [AG]10, ADP + Pi, RocA 50 µM, protein 0.075 μM
[7] = [AG]10, ADP + Pi, RocA 50 µM, protein 0.1 μM
[8] = [AG]10, ADP + Pi, RocA 50 µM, protein 0.5 μM
[9] = [AG]10, ADP + Pi, RocA 50 µM, protein 0.75 μM
[10] = [AG]10, ADP + Pi, RocA 50 µM, protein 1 μM
[11] = [AG]10, ADP + Pi, RocA 50 µM, protein 5 μM
[12] = [AG]10, ADP + Pi, RocA 50 µM, protein 7.5 μM
[13] = [AG]10, ADP + Pi, RocA 50 µM, protein 10 μM
[14] = [AG]10, ADP + Pi, RocA 50 µM, protein 25 μM
[15] = [AG]10, ADP + Pi, RocA 50 µM, protein 50 μM
[16] = [AG]10 RNA, AMP-PNP, RocA, protein concentration 0.01 μM
[17] = [AG]10 RNA, AMP-PNP, RocA, protein concentration 0.05 μM
[18] = [AG]10 RNA, AMP-PNP, RocA, protein concentration 0.075 μM
[19] = [AG]10 RNA, AMP-PNP, RocA, protein concentration 0.1 μM
[20] = [AG]10 RNA, AMP-PNP, RocA, protein concentration 0.5 μM
[21] = [AG]10 RNA, AMP-PNP, RocA, protein concentration 0.75 μM
[22] = [AG]10 RNA, AMP-PNP, RocA, protein concentration 1 μM
[23] = [AG]10 RNA, AMP-PNP, RocA, protein concentration 5 μM
[24] = [AG]10 RNA, AMP-PNP, RocA, protein concentration 7.5 μM
[25] = [AG]10 RNA, AMP-PNP, RocA, protein concentration 10 μM
[26] = [AG]10 RNA, AMP-PNP, RocA, protein concentration 25 μM
[27] = [AG]10 RNA, AMP-PNP, RocA, protein concentration 50 μM

Structure (SMILES): COc1ccc([C@@]23Oc4cc(OC)cc(OC)c4[C@]2(O)[C@H](O)[C@H](C(=O)N(C)C)[C@H]3c2ccccc2)cc1 [RocA, rocaglamide A]
- Kd ([1]; ADP + Pi (1 mM each)): ~17 µM and 17 µM
- Kd ([1]; AMP-PNP 1 mM): 0.23 ± 0.05 µM
- fluorescence polarization, Mean [1, 4]: -0.01093
- fluorescence polarization, replicates [1, 4]: 0.0929
- fluorescence polarization, Mean [1, 5]: -0.1393
- fluorescence polarization, replicates [1, 5]: -0.2186
- fluorescence polarization, Mean [1, 6]: -0.09563
- fluorescence polarization, replicates [1, 6]: -0.03825 and -0.2268
- fluorescence polarization, Mean [1, 7]: -0.08743
- fluorescence polarization, replicates [1, 7]: -0.09563
- fluorescence polarization, Mean [1, 8]: -0.2951
- fluorescence polarization, replicates [1, 8]: -0.2432 and -0.2923 and -0.3497
- fluorescence polarization, Mean [1, 9]: -0.347
- fluorescence polarization, replicates [1, 9]: -0.3169 and -0.3661 and -0.3579
- fluorescence polarization, Mean [1, 10]: -0.2568
- fluorescence polarization, replicates [1, 10]: -0.1858 and -0.2104 and -0.3743
- fluorescence polarization, Mean [1, 11]: -0.112
- fluorescence polarization, replicates [1, 11]: -0.1448 and -0.1612
- fluorescence polarization, Mean [1, 12]: -0.1202
- fluorescence polarization, replicates [1, 12]: -0.08743
- fluorescence polarization, Mean [1, 13]: 0.002732
- fluorescence polarization, replicates [1, 13]: -0.005465
- fluorescence polarization, Mean [1, 14]: 0.2951
- fluorescence polarization, replicates [1, 14]: 0.265
- fluorescence polarization, Mean [1, 15]: 0.4044
- fluorescence polarization, replicates [1, 15]: 0.4208 and 0.429
- Fluorescence polarization, Replicate 1-3 [1, 16]: -0.2186 and -0.2022 and -0.2268
- fluorescence polarization, Mean [1, 16]: -0.2158
- Fluorescence polarization, Replicate 1-3 [1, 17]: 0.2732 and -0.005465 and -0.2268
- fluorescence polarization, Mean [1, 17]: 0.01366
- Fluorescence polarization, Replicate 1-3 [1, 18]: -0.112 and -0.04645 and -0.2104
- fluorescence polarization, Mean [1, 18]: -0.123
- Fluorescence polarization, Replicate 1-3 [1, 19]: 0.3224 and -0.194 and -0.1612
- fluorescence polarization, Mean [1, 19]: -0.01093
- Fluorescence polarization, Replicate 1-3 [1, 20]: 0.2896
- fluorescence polarization, Mean [1, 20]: 0.2896
- Fluorescence polarization, Replicate 1-3 [1, 21]: 0.4699 and 0.2732 and 0.1585
- fluorescence polarization, Mean [1, 21]: 0.3005
- Fluorescence polarization, Replicate 1-3 [1, 22]: 0.4617 and 0.347 and 0.3306
- fluorescence polarization, Mean [1, 22]: 0.3798
- Fluorescence polarization, Replicate 1-3 [1, 23]: 0.5683 and 0.3962 and 0.429
- fluorescence polarization, Mean [1, 23]: 0.4645
- Fluorescence polarization, Replicate 1-3 [1, 24]: 0.5765 and 0.4372 and 0.4044
- fluorescence polarization, Mean [1, 24]: 0.4727
- Fluorescence polarization, Replicate 1-3 [1, 25]: 0.4372 and 0.3962 and 0.3224
- fluorescence polarization, Mean [1, 25]: 0.3852
- Fluorescence polarization, Replicate 1-3 [1, 26]: 0.6585 and 0.4372 and 0.4617
- fluorescence polarization, Mean [1, 26]: 0.5191
- Fluorescence polarization, Replicate 1-3 [1, 27]: 0.5929 and 0.4863 and 0.4699
- fluorescence polarization, Mean [1, 27]: 0.5164
- Kd ([2]; ADP + Pi (1 mM each)): 3900 ± 980 nM
- Kd ([2]; AMP-PNP 1 mM): 51 ± 9.1 nM
- fluorescence polarization, Mean [2, 4]: -0.1448
- fluorescence polarization, replicates [2, 4]: -0.04098 and -0.2377
- fluorescence polarization, Mean [2, 5]: -0.08743
- fluorescence polarization, replicates [2, 5]: -0.08197 and -0.02459
- fluorescence polarization, Mean [2, 6]: -0.06284
- fluorescence polarization, replicates [2, 6]: -0.05738 and -0.123 and -0.008197
- fluorescence polarization, Mean [2, 7]: -0.07923
- fluorescence polarization, replicates [2, 7]: -0.05738 and -0.08197 and -0.09836
- fluorescence polarization, Mean [2, 8]: 0.265
- fluorescence polarization, replicates [2, 8]: 0.2459 and 0.2541 and 0.2951
- fluorescence polarization, Mean [2, 9]: 0.2814
- fluorescence polarization, replicates [2, 9]: 0.3197 and 0.3443 and 0.1803
- fluorescence polarization, Mean [2, 10]: 0.4809
- fluorescence polarization, replicates [2, 10]: 0.4754 and 0.5 and 0.4672
- fluorescence polarization, replicates [2, 11]: 0.459 and 0.6639
- fluorescence polarization, Mean [2, 12]: 0.7978
- fluorescence polarization, replicates [2, 13]: 0.5246 and 0.5902 and 0.582
- fluorescence polarization, Mean [2, 14]: 0.8743
- fluorescence polarization, replicates [2, 14]: 0.8197 and 0.877 and 0.9262
- fluorescence polarization, Mean [2, 15]: 1.003
- fluorescence polarization, replicates [2, 15]: 1.033 and 1.0082
- Fluorescence polarization, Replicate 1-3 [2, 16]: 0.06831 and 0.1421 and 0.06011
- fluorescence polarization, Mean [2, 16]: 0.09016
- Fluorescence polarization, Replicate 1-3 [2, 17]: 0.5929 and 0.5109 and 0.4781
- fluorescence polarization, Mean [2, 17]: 0.5273
- Fluorescence polarization, Replicate 1-3 [2, 18]: 0.5519 and 0.5601 (2×)
- fluorescence polarization, Mean [2, 18]: 0.5574
- Fluorescence polarization, Replicate 1-3 [2, 19]: 0.6093 and 0.6749 and 0.5519
- fluorescence polarization, Mean [2, 19]: 0.612
- Fluorescence polarization, Replicate 1-3 [2, 20]: 0.8716 (2×) and 0.806
- fluorescence polarization, Mean [2, 20]: 0.8497
- Fluorescence polarization, Replicate 1-3 [2, 21]: 0.8798 and 0.8634 and 0.9126
- fluorescence polarization, Mean [2, 21]: 0.8852
- Fluorescence polarization, Replicate 1-3 [2, 22]: 0.9536 and 0.9372 and 0.8716
- fluorescence polarization, Mean [2, 22]: 0.9208
- Fluorescence polarization, Replicate 1-3 [2, 23]: 0.9372 (2×) and 0.9044
- fluorescence polarization, Mean [2, 23]: 0.9262
- Fluorescence polarization, Replicate 1-3 [2, 24]: 0.8716 and 0.9126 and 0.9044
- fluorescence polarization, Mean [2, 24]: 0.8962
- Fluorescence polarization, Replicate 1-3 [2, 25]: 0.9536 and 0.929 and 0.8552
- fluorescence polarization, Mean [2, 25]: 0.9126
- Fluorescence polarization, Replicate 1-3 [2, 26]: 0.9372 and 1.027 and 0.9536
- fluorescence polarization, Mean [2, 26]: 0.9727
- Fluorescence polarization, Replicate 1-3 [2, 27]: 1.044 (2×) and 1.027
- fluorescence polarization, Mean [2, 27]: 1.038
- Kd ([3]; ADP + Pi (1 mM each)): 270 ± 50 nM
- Kd ([3]; AMP-PNP 1 mM): 53 ± 23 nM
- fluorescence polarization, Mean [3, 4]: -0.0929
- fluorescence polarization, replicates [3, 4]: -0.1366
- fluorescence polarization, Mean [3, 5]: -0.112
- fluorescence polarization, replicates [3, 5]: -0.1366
- fluorescence polarization, Mean [3, 6]: -0.05465
- fluorescence polarization, replicates [3, 6]: -0.005465
- fluorescence polarization, Mean [3, 7]: 0.05191
- fluorescence polarization, replicates [3, 7]: 0.0929 and 0.002732
- fluorescence polarization, Mean [3, 8]: 0.3142
- fluorescence polarization, replicates [3, 8]: 0.3142 and 0.2486
- fluorescence polarization, Mean [3, 9]: 0.3661
- fluorescence polarization, replicates [3, 9]: 0.429 and 0.306
- fluorescence polarization, Mean [3, 10]: 0.4044
- fluorescence polarization, replicates [3, 10]: 0.3552 and 0.429 (2×)
- fluorescence polarization, Mean [3, 11]: 0.4399
- fluorescence polarization, replicates [3, 11]: 0.4781 and 0.4208 (2×)
- fluorescence polarization, Mean [3, 12]: 0.5328
- fluorescence polarization, replicates [3, 12]: 0.5519 and 0.5027
- fluorescence polarization, Mean [3, 13]: 0.5055
- fluorescence polarization, replicates [3, 13]: 0.4372 and 0.5109 and 0.5683
- fluorescence polarization, Mean [3, 14]: 0.5301
- fluorescence polarization, replicates [3, 14]: 0.4863
- fluorescence polarization, Mean [3, 15]: 0.5273
- fluorescence polarization, replicates [3, 15]: 0.5765 and 0.5519 and 0.4536
- Fluorescence polarization, Replicate 1-3 [3, 16]: 0.3525 and 0.2213 and 0.04098
- fluorescence polarization, Mean [3, 16]: 0.2049
- Fluorescence polarization, Replicate 1-3 [3, 17]: 0.3852 and 0.2951 and 0.2787
- fluorescence polarization, Mean [3, 17]: 0.3197
- Fluorescence polarization, Replicate 1-3 [3, 18]: 0.3197 and 0.3607 and 0.3361
- fluorescence polarization, Mean [3, 18]: 0.3388
- Fluorescence polarization, Replicate 1-3 [3, 20]: 0.8689 and 0.8197
- Fluorescence polarization, Replicate 1-3 [3, 21]: 0.8115 and 0.7295
- fluorescence polarization, Mean [3, 21]: 0.7514
- Fluorescence polarization, Replicate 1-3 [3, 22]: 0.8279 and 0.8934
- Fluorescence polarization, Replicate 1-3 [3, 23]: 0.8197 and 0.877
- fluorescence polarization, Mean [3, 23]: 0.8661
- Fluorescence polarization, Replicate 1-3 [3, 24]: 0.9262 and 0.8361 and 0.8525
- fluorescence polarization, Mean [3, 24]: 0.8716
- Fluorescence polarization, Replicate 1-3 [3, 25]: 0.8689 and 0.8525 and 0.8033
- fluorescence polarization, Mean [3, 25]: 0.8415
- Fluorescence polarization, Replicate 1-3 [3, 26]: 0.8607 and 0.9262 and 0.877
- fluorescence polarization, Mean [3, 26]: 0.888
- Fluorescence polarization, Replicate 1-3 [3, 27]: 0.9344 and 0.9672 and 0.9098
- fluorescence polarization, Mean [3, 27]: 0.9372
